According to ChEMBL document CHEMBL4038345, “Design, Synthesis, and Biological Evaluation of Novel Selenium-Containing Isocombretastatins and Phenstatins as Antitumor Agents” (J Med Chem, 2017):
Activity calls are given as the source filed them. The calls are words filed in the database; no cut-off is given here.

Tests used:
A549 [1] = assay: Induction of apoptosis in human A549 cells assessed as live cells at 5 nM for 24 hrs by annexin V-FITC/propidium iodide staining-based flow cytometry analysis (reference value: 99.15%); format: functional
A549 [2] = assay: Induction of apoptosis in human A549 cells assessed as necrotic cells at 5 nM for 24 hrs by annexin V-FITC/propidium iodide staining-based flow cytometry analysis (reference value: 0.03%); format: functional
MDA-MB-231 = assay: Antiproliferative activity against human MDA-MB-231 cells after 48 hrs by MTT assay; conditions: MDA-MB-231, 48 h
RKO = assay: Antiproliferative activity against human RKO cells after 48 hrs by MTT assay
MGC-803 = assay: Antiproliferative activity against human MGC803 cells after 48 hrs by MTT assay; conditions: MGC-803, 48 h
[3] = Antiproliferative activity against human HepG2/DOX cells after 48 hrs by MTT assay; format: functional, cell-based
[4] = Resistance index, ratio of IC50 for human A549/CDDP cells to IC50 for human A549 cells; format: functional
[5] = Resistance index, ratio of IC50 for human HepG2/DOX cells to IC50 for human HepG2 cells; format: functional
A549 [6] = assay: Induction of apoptosis in human A549 cells assessed as necrotic cells at 1 nM for 24 hrs by annexin V-FITC/propidium iodide staining-based flow cytometry analysis (reference value: 0.03%); format: functional
A549 [7] = assay: Induction of apoptosis in human A549 cells assessed as early apoptotic cells at 1 nM for 24 hrs by annexin V-FITC/propidium iodide staining-based flow cytometry analysis (reference value: 0.82%); format: functional
A549 [8] = assay: Induction of apoptosis in human A549 cells assessed as late apoptotic cells at 5 nM for 24 hrs by annexin V-FITC/propidium iodide staining-based flow cytometry analysis; format: functional
A549 [9] = assay: Induction of apoptosis in human A549 cells assessed as necrotic cells at 10 nM for 24 hrs by annexin V-FITC/propidium iodide staining-based flow cytometry analysis (reference value: 0.03%); format: functional
A549 [10] = assay: Induction of apoptosis in human A549 cells assessed as live cells at 10 nM for 24 hrs by annexin V-FITC/propidium iodide staining-based flow cytometry analysis (reference value: 99.15%); format: functional
A549 [11] = assay: Induction of apoptosis in human A549 cells assessed as live cells at 1 nM for 48 hrs by annexin V-FITC/propidium iodide staining-based flow cytometry analysis (reference value: 99.01%); format: functional
A549 [12] = assay: Induction of apoptosis in human A549 cells assessed as necrotic cells at 1 nM for 48 hrs by annexin V-FITC/propidium iodide staining-based flow cytometry analysis (reference value: 0.02%); format: functional
A549 [13] = assay: Induction of apoptosis in human A549 cells assessed as early apoptotic cells at 1 nM for 48 hrs by annexin V-FITC/propidium iodide staining-based flow cytometry analysis (reference value: 0.97%); format: functional
A549 [14] = assay: Induction of apoptosis in human A549 cells assessed as late apoptotic cells at 1 nM for 48 hrs by annexin V-FITC/propidium iodide staining-based flow cytometry analysis; format: functional
A549 [15] = assay: Induction of apoptosis in human A549 cells assessed as necrotic cells at 5 nM for 48 hrs by annexin V-FITC/propidium iodide staining-based flow cytometry analysis (reference value: 0.02%); format: functional
A549 [16] = assay: Induction of apoptosis in human A549 cells assessed as live cells at 5 nM for 48 hrs by annexin V-FITC/propidium iodide staining-based flow cytometry analysis (reference value: 99.01%); format: functional
A549 [17] = assay: Induction of apoptosis in human A549 cells assessed as live cells at 10 nM for 48 hrs by annexin V-FITC/propidium iodide staining-based flow cytometry analysis (reference value: 99.01%); format: functional
A549 [18] = assay: Induction of apoptosis in human A549 cells assessed as early apoptotic cells at 10 nM for 48 hrs by annexin V-FITC/propidium iodide staining-based flow cytometry analysis (reference value: 0.97%); format: functional
A549 [19] = assay: Induction of apoptosis in human A549 cells assessed as late apoptotic cells at 10 nM for 48 hrs by annexin V-FITC/propidium iodide staining-based flow cytometry analysis; format: functional
[20] = Metabolic stability in Sprague-Dawley rat liver microsomes assessed as compound remaining after 60 mins in presence of NADPH by UV-based HPLC-MS/MS analysis; format: ADME, microsome; conditions: read-out: Stability
[21] = Metabolic stability in Sprague-Dawley rat liver microsomes assessed as compound remaining after 120 mins in presence of NADPH by UV-based HPLC-MS/MS analysis; format: ADME, microsome; conditions: read-out: Stability
[22] = Metabolic stability in Sprague-Dawley rat liver microsomes assessed as compound remaining after 150 mins in presence of NADPH by UV-based HPLC-MS/MS analysis; format: ADME, microsome; conditions: Sprague-Dawley, liver microsomes, read-out: Stability
[23] = Half life in Sprague-Dawley rat by UV-based HPLC-MS/MS analysis; format: ADME; conditions: in vivo
A549 [24] = assay: Induction of microtubule disruption in human A549 cells at 5 to 10 nM after 8 to 24 hrs by Hoechst 33342 staining-based laser scanning confocal immunofluorescence microscopic analysis; format: cell-based
A549 [25] = assay: Disruption of mitochondrial membrane potential in human A549 cells at 1 nM after 24 hrs by JC1 staining-based flow cytometry method (reference value: 0.62%); format: functional
A549 [26] = assay: Disruption of mitochondrial membrane potential in human A549 cells assessed as intact mitochondrial membrane at 5 nM after 24 hrs by JC1 staining-based flow cytometry method (reference value: 99.18%); format: functional
A549 [27] = assay: Disruption of mitochondrial membrane potential in human A549 cells at 5 nM after 24 hrs by JC1 staining-based flow cytometry method (reference value: 0.62%); format: functional
A549 [28] = assay: Disruption of mitochondrial membrane potential in human A549 cells assessed as intact mitochondrial membrane at 10 nM after 24 hrs by JC1 staining-based flow cytometry method (reference value: 99.18%); format: functional
A549 [29] = assay: Disruption of mitochondrial membrane potential in human A549 cells at 10 nM after 24 hrs by JC1 staining-based flow cytometry method (reference value: 0.62%); format: functional
A549 [30] = assay: Disruption of mitochondrial membrane potential in human A549 cells at 1 to 10 nM after 24 hrs by JC1/Hoechst 33342 staining-based fluorescence microscopic method; format: functional, cell-based
A549 [31] = assay: Induction of apoptosis in human A549 cells assessed as downregulation of Bcl2 expression at 1 to 10 nM after 24 to 48 hrs by Western blot analysis; format: functional, cell-based
A549 [32] = assay: Induction of apoptosis in human A549 cells assessed as downregulation of Bcl-xl expression at 1 to 10 nM after 24 to 48 hrs by Western blot analysis; format: functional, cell-based
A549 [33] = assay: cells; conditions: Homo sapiens, A549, 48 h
MCF7 = assay: cells; conditions: Homo sapiens, MCF7, 48 h
HeLa = assay: cells; conditions: Homo sapiens, 48 h
HCT-116 = assay: cells; conditions: Homo sapiens, HCT-116, 48 h
A2780 = assay: cells; conditions: Homo sapiens, A2780, 48 h
Description: Antiproliferative activity against human A2780 cells after 48 hrs by MTT assay

SMILES: C=C(c1ccc(OC)c(O)c1)c1cc(OC)c(OC)c([Se]C)c1
- Activity (A549 [1]): 64.43%
- Activity (A549 [2]): 1.69%
- IC50 (MDA-MB-231): 2.2 nM
- IC50 (RKO): 11 nM
- IC50 (MGC-803): 9 nM
- IC50 [3]: 20.3 nM
- Ratio IC50 [4]: 8.8
- Ratio IC50 [5]: 6.8
- Activity (A549 [6]): 0.2%
- Activity (A549 [7]): 3.63%
- Activity (A549 [8]): 2.52%
- Activity (A549 [9]): 0.08%
- Activity (A549 [10]): 48.49%
- Activity (A549 [11]): 80.49%
- Activity (A549 [12]): 0.86%
- Activity (A549 [13]): 15.79%
- Activity (A549 [14]): 2.86%
- Activity (A549 [15]): 10.45%
- Activity (A549 [16]): 49.13%
- Activity (A549 [17]): 23.45%
- Activity (A549 [18]): 42.57%
- Activity (A549 [19]): 20.44%
- remaining at 1 h [20]: 62.3%
- remaining at 2 h [21]: 33.4%
- remaining at 2.5 h [22]: 25.8%
- half-life [23]: 1.24 h
- Activity (A549 [24]): Active
- Activity (A549 [25]): 12.78%
- Activity (A549 [26]): 57.63%
- Activity (A549 [27]): 42.63%
- Activity (A549 [28]): 9.14%
- Activity (A549 [29]): 90.78%
- Activity (A549 [30]): Active
- Activity (A549 [31]): Active
- Activity (A549 [32]): Active
- IC50 (A549 [33]): 3.9 nM
- IC50 (MCF7): 27 nM
- IC50 (HeLa): 3 nM
- IC50 (HCT-116): 12 nM
- IC50 (A2780): 6 nM
